Reference: US20140315999A1, “USE OF PROLYL H[…] A RADIOPROTECTIVE DRUG FOR THE LOWER GASTROINTESTINAL TRACT” (priority 2011, published 2014)

Assays:
HIF-1 = test: Western blot for HIF-1 in colonic crypts after DMOG injection; format: in vivo, male C57Bl/6 mice; settings: 8 mg DMOG intraperitoneally; 4-12 after DMOG administration
Experimental: (§1) FIG. 1 depicts a Western blot for HIF-1, HIF-2, and β-actin in colonic crypts at the time points indicated after DMOG injection (8 mg.) Each lane represents a different animal.
(§2) In order to assess the kinetic effects of DMOG on the HIF-1 and HIF-2 protein levels, male C57Bl/6 mice were injected with 8 mg. of DMOG intraperitoneally and colonic crypts were harvested at various time points after injection (FIG. 1). A 8 mg dose results in the elevation of HIF1 and HIF2 proteins 4-12 after DMOG administration as determined by Western blot analysis.

HIF-2 = test: Western blot for HIF-2 in colonic crypts after DMOG injection; format: in vivo, male C57Bl/6 mice; settings: 8 mg DMOG intraperitoneally; 4-12 after DMOG administration
Experimental: as §1, §2

[1] = Mortality, GI toxicity and gross intestinal morphology after DMOG injection; format: in vivo, male C57Bl/6 mice; settings: 8 mg DMOG intraperitoneally, mice
intestinal stem cells = test: Microcolony analysis of colon crypt regeneration after 20 Gy abdominal irradiation; format: in vivo, mice
Experimental: FIG. 2 is a graphical depiction of the crypts identified in transverse sections of colon stained with hematoxylin-eosin (H & E) after they were treated with saline or DMOG 16 hours before radiation, 4 hours before radiation, and then every 24 hours after receiving 20 Gy of abdominal radiation. The data represents the combined results from 8 mice receiving either DMOG or saline. Sixteen sections were analyzed per mouse. *p<0.006.
FIG. 3 is a graphical depiction of the crypts identified in transverse sections of colon stained with H & E in mice irradiated before administration of DMOG. Mice were treated with saline or DMOG 2 hours after receiving 20 Gy of abdominal radiation and then once every 24 hours thereafter for 4.5 days. x-axis, left bar mice treated with saline, right bar mice treated with DMOG; y-axis regenerated crypts. *p<0.005.
Radio- and chemotoxicity to the GI tract is the result of damage to the intestinal stem cell located within the crypts of Lieberkühn. The intestinal stem cell, defined by its expression of LGR5 is the most rapidly dividing cell in the GI tract and is therefore susceptible to genotoxic damage. […]

GI epithelia = test: FITC-dextran assay of the GI tract (epithelial integrity) after irradiation; format: in vivo, mice; settings: 20 Gy; gavage 0.6 mg/kg FITC-dextran (4 kD); measured four hours later (FIG. 4)
Experimental: FIG. 4 depicts the concentration of FITC-Dextran present in the serum of mice gavaged with 0.6 mg./kg. FITC-Dextran (4 kD) either with or without irradiation and with or without DMOG. Six mice were tested per experimental condition. *p<0.04
Mortality from GI radiotoxicity results from compromised epithelial integrity manifesting as uncontrolled diarrhea or infections from enteric pathogens due to decreased barrier function. To test whether a PHD inhibitor would increase epithelial integrity after radiation insult, a FITC-dextran assay of the GI tract was performed. FITC-dextran cannot cross the GI epithelia, thus its presence in serum is an indication of compromised epithelial integrity. Following irradiation (20 Gy), mice underwent gavage, with the insertion of 0.6 mg/kg of FITC-dextran (4 kD). Four hours later, levels of FITC-dextran were measured in the blood. Treatment with DMOG results in a 3.5-fold decrease in the presence of FITC-dextran in the serum relative to saline control (FIG. 4).

[2] = test system: mice receiving 20 Gy of abdominal radiation; test: Survival following whole-abdominal irradiation (Kaplan-Meier); format: in vivo; settings: 20 Gy abdominal radiation, DMOG treatment vs none (FIG. 5)
Text: FIG. 5 depicts Kaplan-Meier survival analysis of mice following whole-abdominal irradiation (20 Gy) with and without DMOG treatment. p=0.03 (n=12).

## COC(=O)CNC(=O)C(=O)OC [DMOG, N-(methoxyoxoacetyl)-glycine methyl ester]
HIF-1
  HIF1 protein level in colonic crypts (Western blot): elevation
HIF-2
  HIF2 protein level in colonic crypts (Western blot): elevation
[1]
  gross morphological changes in the intestine: nor was there obvious gross morphological changes in the intestine
  mortality or GI toxicity: no observed increase in mortality or GI toxicity
Intestinal stem cells; 8 mg DMOG prior to 20 Gy whole-abdomen irradiation, then daily, sacrifice 4.5 days post irradiation (FIG. 2)
  enrichment in regenerative capacity of colon relative to saline alone (regenerated crypts): 2 fold
Intestinal stem cells; DMOG administered after 20 Gy whole-abdomen irradiation (2 hours after, then every 24 hours), 4.5 days (FIG. 3)
  enrichment in regenerative capacity of colon relative to saline alone (regenerated crypts): 2 fold
GI epithelia
  decrease in FITC-dextran in the serum relative to saline control: 3.5 fold
[2]
  overall survival: dramatically improved
